This assay concerns HBV. In words: HBV-DNA Antiviral Assay Using HepG2.2.15 Cells (extracellular HBV DNA by qPCR). The format is cell-based, hepatitis B virus (HBV). As to conditions: Hepatitis B virus; HBV DNA inhibition, HepG2.2.15 cells, extracellular HBV DNA by qPCR; read-out: EC50. Summed up:
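HepG2.2.15 cells were treated on day 1 with 8 concentrations (4-fold dilutions, duplicate; 0.5% DMSO), with compound-containing medium refreshed on day 4, at 37 °C. On day 7, supernatant HBV DNA was measured by qPCR against a plasmid standard curve, with inhibition normalised between DMSO and ETV controls. EC50/EC90 and CC50 (CellTiter-Glo ATP) came from variable-slope fits.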
On the technique in general: Quantitative PCR measures a nucleic acid by following its amplification.

For orientation: EC50 means the concentration at which the effect is half-maximal.

For the compound `Cc1c(C(=O)C(=O)NC2(c3ncc[nH]3)COC2)c(C)n(C)c1C(=O)Nc1ccc(F)c(C(F)(F)F)c1` [Compound 155, N-[4-fluoro-3-(trifluoromethyl)phenyl]-4-[2-[[3-(1H-imidazol-2-yl)oxetan-3-yl]amino]-2-oxo-acetyl]-1,3,5-trimethyl-pyrrole-2-carboxamide], the EC50 was in the range of 1 to 10 nM.

Take `Cc1c(C(=O)C(=O)NC2(c3c[nH]cn3)COC2)c(C)n(C)c1C(=O)Nc1ccc(F)c(C(F)(F)F)c1` [Compound 156, N-[4-fluoro-3-(trifluoromethyl)phenyl]-4-[2-[[3-(1H-imidazol-4-yl)oxetan-3-yl]amino]-2-oxo-acetyl]-1,3,5-trimethyl-pyrrole-2-carboxamide]: the EC50 is less than 1 nM.

`Cc1c(C(=O)C(=O)NC2(c3c[nH]cn3)COC2)c(C)n(C)c1C(=O)Nc1ccc(F)c(C#N)c1` [Compound 157, N-(3-cyano-4-fluoro-phenyl)-4-[2-[[3-(1H-imidazol-4-yl)oxetan-3-yl]amino]-2-oxo-acetyl]-1,3,5-trimethyl-pyrrole-2-carboxamide]: the EC50 was 1 to 10 nM.

As for `Cc1c(C(=O)C(=O)NC2(c3cn[nH]c3)COC2)c(C)n(C)c1C(=O)Nc1ccc(F)c(C(F)(F)F)c1` [Compound 158, N-[4-fluoro-3-(trifluoromethyl)phenyl]-1,3,5-trimethyl-4-[2-oxo-2-[[3-(1H-pyrazol-4-yl)oxetan-3-yl]amino]acetyl]pyrrole-2-carboxamide], the EC50 was less than 1 nM.

Take `Cc1c(C(=O)C(=O)NC(C)(C)c2ccc[nH]c2=O)c(C)n(C)c1C(=O)Nc1ccc(F)c(C(F)(F)F)c1` [Compound 159, N-[4-fluoro-3-(trifluoromethyl)phenyl]-1,3,5-trimethyl-4-[2-[[1-methyl-1-(2-oxo-1H-pyridin-3-yl)ethyl]amino]-2-oxo-acetyl]pyrrole-2-carboxamide]: the EC50 fell in the range of 1 to 10 nM.

As for `Cc1c(C(=O)C(=O)NC(C)(C)c2ccc3[nH]cnc3c2)c(C)n(C)c1C(=O)Nc1ccc(F)c(C#N)c1` [Compound 160, 4-[2-[[1-(1H-benzimidazol-5-yl)-1-methyl-ethyl]amino]-2-oxo-acetyl]-N-(3-cyano-4-fluoro-phenyl)-1,3,5-trimethyl-pyrrole-2-carboxamide], the EC50 fell in the range of 1 to 10 nM.

Turning to `Cc1c(C(=O)C(=O)NC(C)(C)c2ccc[nH]c2=O)c(C)n(C)c1C(=O)Nc1ccc(F)c(C#N)c1` [Compound 161, N-(3-cyano-4-fluoro-phenyl)-1,3,5-trimethyl-4-[2-[[1-methyl-1-(2-oxo-1H-pyridin-3-yl)ethyl]amino]-2-oxo-acetyl]pyrrole-2-carboxamide], the EC50 fell in the range of 1 to 10 nM.

`Cc1cc(NC(=O)c2c(C)c(C(=O)C(=O)NC(C)(C)c3ccc4[nH]cnc4c3)c(C)n2C)ccc1F` [Compound 162, 4-[2-[[1-(1H-benzimidazol-5-yl)-1-methyl-ethyl]amino]-2-oxo-acetyl]-N-(4-fluoro-3-methyl-phenyl)-1,3,5-trimethyl-pyrrole-2-carboxamide]: the EC50 lay within 1 to 10 nM.

The values above are taken from US12599582B2, “Pyrrole compounds” (ALIGOS THERAPEUTICS, INC., priority 2019, dated 2026).
